Results reported in patent US7018994B2, “17α-ALKYL-17β-OXY-ESTRATRIENES AND INTERMEDIATE PRODUCTS FOR THEIR PRODUCTION, USE OF THE 17α-ALKYL-17β-OXY-ESTRATRIENES FOR THE PRODUCTION OF PHARMACEUTICAL AGENTS AS WELL AS PHARMACEUTICAL PREPARATIONS” (Schering AG, priority 2001, dated 2006).

Assays:
[1] = system: uterus growth; experiment: Uterus growth test on infant rats (test on antiestrogenic action, antiuterotropic action); type: in vivo, rat; conditions: infant female rats, inhibition relative to EB control; for Antiuterotropic Action % Inhib. p.o.: 0.3 (mg/kg of body weight) p.o. once daily for three days with 0.5 μg estradiolbenzoate s.c.
[2] = Metabolic stability in liver microsomes; type: in vitro ADME; conditions: LC/MS/MS
Description: (§1) The concentrations of the test substances measured per LC/MS/MS and the resulting 17 ketone product are reproduced in FIGS. 2a-2f.

[3] = target: T1, 17β-HSD2 (Homo sapiens, UniProt P37059); experiment: Determination of metabolic stability: in-vitro 17β-HSD test, intestinal microsomes; type: in vitro ADME; conditions: LC/MS/MS; for metabolic stability in intestinal microsomes: 37° C., 0-60 minutes, 0.3 μmol in the test batch
T1 construct: Microsome solution: intestinal microsomes (In Vitro Technologies); protein content: 24 mg/ml; tissue In Vitro Technologies; host or cells: intestinal microsomes
T1 sequence (P37059 1-387): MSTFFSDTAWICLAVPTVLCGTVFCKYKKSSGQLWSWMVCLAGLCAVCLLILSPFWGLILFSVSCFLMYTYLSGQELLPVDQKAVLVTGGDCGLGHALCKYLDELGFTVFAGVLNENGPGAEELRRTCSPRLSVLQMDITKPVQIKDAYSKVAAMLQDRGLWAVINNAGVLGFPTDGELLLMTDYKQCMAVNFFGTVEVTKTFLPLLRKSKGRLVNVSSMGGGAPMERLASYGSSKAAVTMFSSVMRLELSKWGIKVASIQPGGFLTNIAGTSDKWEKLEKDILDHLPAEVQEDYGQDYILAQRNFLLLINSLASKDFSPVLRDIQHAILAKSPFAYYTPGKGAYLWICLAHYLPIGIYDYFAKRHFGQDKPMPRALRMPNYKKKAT
Description: Determination of metabolic stability: in-vitro 17β-HSD test
17β-HSD2 mediates the intestinal enzymatic dehydrogenization of an OH group in 17-position of the sterane skeleton into a ketone group.
For this test, the following materials are used:
Na-Phosphate buffer: 100 mmol of Na2HPO4×2H2O and 100 mmol of NaH2PO4×H2O
Test substance solution of
11β-Fluoro-7α-{5-[methyl(8,8,9,9,9-pentafluorononyl)amino]pentyl}-17α-methylestra-1,3,5(10)-triene-3,17β-diol (compound 1, as a representative of the compounds of general formula I) and
11β-Fluoro-7α-{5-[methyl(8,8,9,9,9-pentafluorononyl)amino]pentyl-estra-1,3,5(10)-triene-3,17β-diol (compound 2): […] in MeOH (0.3 μmol in the test batch).
Cofactor solution: 2 ml of glucose-6-phosphate (160 mmol)/MgCl2 (80 mmol) mixture is added to 400 μl of a glucose-6-phosphate-dehydrogenase solution, and then 15.6 mg of NADP and 13.4 mg of NAD are added.
Microsome solution: intestinal microsomes (In Vitro Technologies; protein content: 24 mg/ml; CYP450 content: 0.058 nmol/mg of protein)
In the water bath, it is thawed at 37° C. (˜60 seconds) and diluted with Na-phosphate buffer to a concentration of 5 mg/ml of protein.
In each case, 170 μl/well of the buffer and 5 μl/well of the test substance solutions are introduced into the corresponding wells, whereby double values are applied for each measuring time (0, 10, 20, 30, 45 and 60 minutes).
In each case, 250 μl of ice-cold MeOH is added to the 0-minute values. Then, 25 μl of microsome solution and 50 μl of cofactor solution are added immediately to all wells. The samples of the 0-minute values are stored without incubation at ˜−20° C. for about 24 hours. The other samples are incubated in each case for 10, 20, 30, 45 and 60 minutes at 37° C., and the dehydrogenation reaction is stopped after these times by the addition of 250 μl of ice-cold MeOH in each case. The samples are stored until measurement per LC/MS/MS at ˜−20° C., for about 24 hours and centrifuged at 3000 rpm before analysis, whereby the supernatant is measured.
as §1

Compound | Antiuterotropic Action % Inhib. p.o. [1] [%] | metabolic stability in intestinal microsomes [3] | formation of the 17-ketone product of the 17βHSD-reaction [3] | further results
11β-Fluoro-7α-{5-[methyl(7,7,8,8,9,9,9-heptafluorononyl)amino]pentyl}-17α-methylestra-1,3,5(10)-triene-3,17β-diol [No. 8] | 94 |  |  | 
11β-Fluoro-7α-{5-[methyl(7,7,8,8,9,9,10,10,10-nonafluorodecyl)amino]pentyl}-17α-methylestra-1,3,5 (10)-triene-3,17β-diol [No. 7] |  |  |  | Antiuterotropic Action % Inhib. s.c. ([1]; 0.03 (mg/kg of body weight) s.c., once daily for three days with 0.5 μg estradiolbenzoate s.c.): 59%
11β-Fluoro-7α-{5-[methyl(8,8,9,9,9-pentafluorononyl)amino]pentyl}-17α-methylestra-1,3,5(10)-triene-3,17β-diol [compound 1] |  | metabolically stable | does not occur in any of the tissues | formation of the 17-ketone product of the 17βHSD-reaction [2]: does not occur in any of the tissues; metabolic stability in liver microsomes [2]: not in liver microsomes
CN(CCCCCCCC(F)(F)C(F)(F)F)CCCCC[C@@H]1Cc2cc(O)ccc2[C@@H]2[C@@H]1[C@@H]1CC[C@H](O)[C@@]1(C)C[C@@H]2F [compound 2, reference compound] |  | degraded | the corresponding 17-ketone is produced | 
CN(CCCCCCCC(F)(F)C(F)(F)F)CCCCC[C@@H]1Cc2cc(O)ccc2[C@@H]2[C@@H]1[C@@H]1CCC(=O)[C@@]1(C)C[C@@H]2F [compound 3, 11β-fluoro-7α-{5-[methyl(8,8,9,9,9-pentafluorononyl)amino]pentyl}-estra-1,3,5(10)-trien-3-ol-17-one] | 76 |  |  | 
